Consider 3 molecules from PubChem BioAssay (NCI).

Some test systems named below: BT-549 breast; CCRF-CEM leukemia; EKVX NSCLC; HCT-15 colon; HL-60(TB) leukemia; NCI-H23 lung; OVCAR-3 ovarian; OVCAR-5 ovarian; PC-3 prostate; SF-268 CNS.
Common to all, as to experiment: NCI anticancer screen, dose series, 48 h

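48-hour exposure; five concentrations; linearly interpolated endpoints. GI50 is the concentration that inhibits growth by half. TGI: concentration producing complete growth inhibition.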 Where only a bound is given, the exact number is not on record here.

For the molecule `COc1ccc2[nH]c(C(=O)N3CC(CCl)c4c3cc(N)c3ccccc43)cc2c1` (stereo not given), the TGI is under 0.0261 µM with BT-549 breast; 0.0681 µM with CCRF-CEM leukemia; 0.128 µM with EKVX NSCLC; 1.15 µM in the test on HCT-15 colon; under 0.01 µM with HL-60(TB) leukemia; under 0.0109 µM with NCI-H23 lung. Further, the TGI in the test with OVCAR-3 ovarian was over 100 µM; with OVCAR-5 ovarian, 0.315 µM; in the test with PC-3 prostate, 0.0447 µM; in the test on SF-268 CNS, under 0.01 µM.

Take `COc1cc(CCN(C)C)cc(OC)c1OC`: the TGI in the test with BT-549 breast, in the test on CCRF-CEM leukemia, in the test with EKVX NSCLC, in the test on HCT-15 colon, in the test with HL-60(TB) leukemia and in the test on NCI-H23 lung was over 100 µM in each case. Also, the TGI in the test on OVCAR-3 ovarian, in the test on OVCAR-5 ovarian, in the test with PC-3 prostate and in the test on SF-268 CNS was over 100 µM throughout.

`Clc1ccc(C2CC(c3cccc(Nc4ccncc4)c3)=NN2c2cc(Cl)cc(Cl)c2)cc1` (stereo not given): the GI50 is 1.85 µM in the test with BT-549 breast; 3.52 µM with CCRF-CEM leukemia; 1.6 µM in the test on EKVX NSCLC; 1.77 µM in the test with HCT-15 colon; 2.2 µM with HL-60(TB) leukemia; 1.71 µM with NCI-H23 lung. Also, the GI50 in the test with OVCAR-3 ovarian is 1.84 µM; in the test with OVCAR-5 ovarian it was 1.78 µM; in the test with PC-3 prostate it was 1.69 µM; in the test with SF-268 CNS, 1.78 µM. The TGI is 3.57 µM in the test on BT-549 breast; over 100 µM in the test with CCRF-CEM leukemia; 3.12 µM in the test on EKVX NSCLC; 3.45 µM in the test with HCT-15 colon; 5.05 µM in the test on HL-60(TB) leukemia; 3.34 µM with NCI-H23 lung. Moreover, the TGI in the test with OVCAR-3 ovarian is 3.41 µM; with OVCAR-5 ovarian, 3.33 µM; with PC-3 prostate it was 3.29 µM; in the test on SF-268 CNS, 3.59 µM.
